assay: in vitro; details: human, hela cells, % viability

| SMILES | viability at 28.5 h, 10 µM [%] |
| --- | --- |
| COc1ccc(C(NC(=O)C2CCN(CCn3cnc4c3c(=O)n(C)c(=O)n4C)CC2)c2ccco2)cc1 (centres unmarked) [CBK148308] | 85.8 |
| COc1ccc(C(NC(=O)C2CCN(CCOc3ccc(Br)cc3)CC2)c2ccco2)cc1 (centres unmarked) [CBK148311] | 95.8 |
| O=C(NC(c1ccc2ccccc2n1)c1cccs1)C1CCNCC1 (centres unmarked) [CBK148331] | 98.9 |
| CN(C(=O)C1CCN(Cc2cccc(C(F)(F)F)c2)CC1)C(c1ccc(F)cc1)c1ccccn1 (centres unmarked) [CBK148409] | 95.7 |
| COc1cccc(OC)c1OCCN1CCC(C(=O)NC(c2ccccc2)c2ccccn2)CC1 (centres unmarked) [CBK148419] | 96.3 |
| O=C(CN1CCC(C(=O)NC(c2ccccc2)c2ccsc2)CC1)c1ccc(F)cc1 (centres unmarked) [CBK148432] | 86.9 |
| O=C(NC(c1ccccc1)c1ccsc1)C1CCN(CCc2ccccc2)CC1 (centres unmarked) [CBK148433] | 98.1 |
| O=C(NC(c1ccccc1)c1ccsc1)C1CCN(C/C=C/c2ccccc2)CC1 (centres unmarked) [CBK148449] | 89.4 |
| O=C(NC(c1cccnc1)c1ccc2c(c1)OCO2)C1CCN(CCc2cccs2)CC1 (centres unmarked) [CBK148503] | 105 |
| COc1cccc(C(NC(=O)C2CCN(Cc3cccs3)CC2)c2cnccn2)c1 (centres unmarked) [CBK148572] | 106 |
| CC(NC(=O)C1CCN(Cc2ccc(Oc3ccccc3)cc2)CC1)c1ccccc1 (centres unmarked) [CBK148618] | 107 |
| CC(NC(=O)C1CCN(CCn2cnc3c2c(=O)n(C)c(=O)n3C)CC1)c1ccccc1 (centres unmarked) [CBK148624] | 99.4 |
| COc1cccc(CCN2CCC(C(=O)NC(C)c3cccc4ccccc34)CC2)c1 (centres unmarked) [CBK148650] | 93.3 |
| CC(NC(=O)C1CCN(CCCN(C)S(C)(=O)=O)CC1)c1cccc2ccccc12 (centres unmarked) [CBK148651] | 104 |
| CC(NC(=O)C1CCN(Cc2ccccn2)CC1)c1cccc2ccccc12 (centres unmarked) [CBK148662] | 98.2 |
| COc1ccc(OC)c(C(C)NC(=O)C2CCN(Cc3cccc(C(F)(F)F)c3)CC2)c1 (centres unmarked) [CBK148764] | 95.7 |
| C=CCN1CCC(C(=O)NC(C)c2ccc(OC)c(OC)c2)CC1 (centres unmarked) [CBK148924] | 91.1 |
| Cc1cc(Cl)ccc1CNC(=O)c1ccc2[nH]ccc2c1 [CBK149048] | 81.7 |
| O=C(NCc1cccs1)c1ccc2[nH]ccc2c1 [CBK149060] | 83.3 |
| CCN(CC)C(=O)c1ccc2[nH]ccc2c1 [CBK149072] | 97.1 |
| O=C(c1ccc2[nH]ccc2c1)N1CCCC1 [CBK149074] | 106 |
| O=C(NCc1nc2ccccc2[nH]1)c1ccc2[nH]ccc2c1 [CBK149079] | 89 |
| NC(=O)CCNC(=O)c1ccc2[nH]ccc2c1 [CBK149082] | 102 |

| SMILES | viability at 28.5 h, 10 µM [%] |
| --- | --- |
| COc1cccc2cc(C(=O)N3CCN(C4CCN(C)CC4)CC3)oc12 [CBK149086] | 91.2 |
| Cc1c(C(=O)N2CCN(C3CCN(C)CC3)CC2)nnn1-c1cccc(C(F)(F)F)c1 [CBK149088] | 94.2 |
| CC(C)c1ccc(/C=C/C(=O)N2CCN(C3CCN(C)CC3)CC2)cc1 [CBK149094] | 105 |
| CN1CCC(N2CCN(C(=O)c3ccc4c(c3)no[n+]4[O-])CC2)CC1 [CBK149095] | 92.6 |
| CN1CCC(N2CCN(C(=O)C3(c4ccccc4)CCCC3)CC2)CC1 [CBK149096] | 99.3 |
| CC(=O)c1c(C)[nH]c(C(=O)N2CCN(C3CCN(C)CC3)CC2)c1C [CBK149098] | 104 |
| COc1cc(CN2CCC[C@@H]2CN2CCCC2)cc(OC)c1OC [CBK149100] | 105 |
| c1cncc(CN2CCC[C@@H]2CN2CCCC2)c1 [CBK149101C] | 99.3 |
| c1ccc2[nH]c(CN3CCC[C@@H]3CN3CCCC3)nc2c1 [CBK149102] | 85.9 |
| c1ccc2c(CCN3CCC[C@@H]3CN3CCCC3)c[nH]c2c1 [CBK149104] | 87.4 |
| O=C(CN1CCC[C@@H]1CN1CCCC1)Nc1ncccn1 [CBK149107] | 103 |
| c1ccc(C(CCN2CCC[C@@H]2CN2CCCC2)c2ccccc2)cc1 [CBK149109] | 89.7 |
| O=C(c1ccc(F)cc1)C1CCN(Cc2cccnc2)CC1 [CBK149118] | 101 |
| Cc1cc(CN2CCC(C(=O)c3ccc(F)cc3)CC2)no1 [CBK149121] | 89.2 |
| O=C(c1ccc(F)cc1)C1CCN(Cc2ccc3ccccc3c2)CC1 [CBK149122] | 79.9 |
| O=C(c1ccc(F)cc1)C1CCN(C/C=C/c2ccccc2)CC1 [CBK149124] | 90.4 |
| O=C(c1ccc(F)cc1)C1CCN(CCc2c[nH]c3ccccc23)CC1 [CBK149125] | 96.3 |
| O=C(CN1CCC(C(=O)c2ccc(F)cc2)CC1)Nc1ncccn1 [CBK149131] | 95.7 |
| O=C(c1ccc(F)cc1)C1CCN(Cc2cc(=O)[nH]c(=O)[nH]2)CC1 [CBK149132] | 91.8 |
| O=C(c1ccc(F)cc1)C1CCN(CCC(c2ccccc2)c2ccccc2)CC1 [CBK149138] | 92.3 |
| Cc1nc(CN2CCC(C(=O)c3ccc(F)cc3)CC2)cs1 [CBK149147] | 103 |
| Cc1ccc(NC(=O)c2nc(-c3ccc(C(=O)N4CCOCC4)cc3)cnc2N)c(O)c1 [CBK149152] | 44.3 |
| Nc1ncc(-c2ccc(C(=O)N3CCOCC3)cc2)nc1C(=O)NC1CCCCC1 [CBK149160] | 89.3 |

| SMILES | viability at 28.5 h, 10 µM [%] |
| --- | --- |
| COc1cccc(NC(=O)N2CCC(n3c(=O)n(C(=O)Nc4cccc(OC)c4)c4ccccc43)CC2)c1 [CBK149177] | 94.8 |
| CCOc1ccc(OC(=O)c2ccc3c(c2)OCO3)cc1 [CBK149205] | 92.6 |
| CCOc1ccc(OC(=O)c2ccc(OC(F)(F)F)cc2)cc1 [CBK149207] | 95.8 |
| COC(=O)c1ccc(-c2ccc(F)cc2OC)nc1 [CBK149230] | 88.3 |
| COC(=O)c1ccc(-c2ccc(Cl)c(Cl)c2)nc1 [CBK149231] | 101 |
| CCOC(=O)c1cnn(C)c1-c1ccc(F)cc1OC [CBK149233] | 92.8 |
| CCOC(=O)c1cccnc1-c1cncnc1 [CBK149236] | 118 |
| CCOC(=O)c1cccnc1-c1cccc(C(N)=O)c1 [CBK149239] | 96 |
| CCOC(=O)c1cccnc1-c1ccc(Cl)c(Cl)c1 [CBK149241] | 92.1 |
| CCOC(=O)c1cccnc1-c1ccc(S(C)(=O)=O)cc1 [CBK149242] | 105 |
| CCOC(=O)c1cccc(-c2cc3ccccc3o2)n1 [CBK149243] | 114 |
| CCOC(=O)c1cccc(-c2ccc(F)cc2F)n1 [CBK149245] | 101 |
| CCOC(=O)c1cccc(-c2ccc(OC(F)(F)F)cc2)n1 [CBK149251] | 96.6 |
| c1ccc(-c2nc(C3CC3)n3ccccc23)cc1 [CBK149257] | 94.1 |
| c1ccc(-c2nc(C3CCCC3)n3ccccc23)cc1 [CBK149260] | 93.3 |
| COc1cccc2sc(NC(=O)CCCN(C)C)nc12 [CBK149261] | 93 |
| COc1cccc2sc(NC(=O)c3ccc4occc4c3)nc12 [CBK149278] | 96.8 |
| COc1cccc2sc(NC(=O)CN3CCOCC3)nc12 [CBK149281] | 98.8 |
| COc1cccc2sc(NC(=O)c3c(F)cccc3F)nc12 [CBK149283] | 95.5 |
| COc1cccc2sc(NC(=O)Cc3ccccc3)nc12 [CBK149284] | 103 |
| CN(C)CCCC(=O)NCc1ccc(-c2csnn2)cc1 [CBK149288] | 91 |
| O=C(NCc1ccc(-c2csnn2)cc1)c1cccc(C(F)(F)F)c1 [CBK149293] | 87.2 |
| CSCCC(=O)NCc1ccc(-c2csnn2)cc1 [CBK149304] | 83.2 |

| SMILES | viability at 28.5 h, 10 µM [%] |
| --- | --- |
| COc1cc(C(=O)NCc2ccc(-c3csnn3)cc2)cc(OC)c1OC [CBK149308] | 87 |
| O=C(COc1cccnc1)NCc1ccc(-c2csnn2)cc1 [CBK149312] | 93.1 |
| COc1ccc2[nH]cc(CC(=O)NCc3ccc(-c4csnn4)cc3)c2c1 [CBK149313] | 82.7 |
| Cc1cc(C(=O)NCc2ccc(-c3csnn3)cc2)n[nH]1 [CBK149314] | 88.8 |
| CCN(CC)CCNC(=O)c1c(C)[nH]c(/C=C2\C(=O)Nc3ccc(F)cc32)c1C [CBK149343] | 50.7 |
| CS(=O)(=O)c1ccc(Cn2cc(CN3CCC(Sc4ccccn4)CC3)nn2)cc1 [CBK149475] | 98.4 |
| CC(=O)Nc1ccc(-n2cc(CN3CCC(Sc4ccccn4)CC3)nn2)cc1 [CBK149476] | 99.5 |
| CC(=O)Nc1ccc(-n2cc(COC3CCN(C(=O)OC(C)(C)C)CC3)nn2)cc1 [CBK149481] | 121 |
| CC(=O)Nc1ccc(-c2cccc(COC3CCN(C(=O)c4ccc(OC(C)C)cc4)CC3)c2)cc1 [CBK149485] | 100 |
| CC(=O)Nc1ccc(-c2cccc(COC3CCN(C(=O)Cc4ccc(Cl)c(Cl)c4)CC3)c2)cc1 [CBK149487] | 109 |
| CC(=O)Nc1ccc(-c2cccc(COC3CCN(C(=O)Cc4c[nH]cn4)CC3)c2)cc1 [CBK149497] | 103 |
| CS(=O)(=O)c1ccc(-c2cccc(COC3CCN(C(=O)Cc4ccc(F)cc4F)CC3)c2)cc1 [CBK149506] | 87.8 |
| CS(=O)(=O)c1ccc(-c2cccc(COC3CCN(C(=O)Cc4cccc5ccccc45)CC3)c2)cc1 [CBK149510] | 90.6 |
| CS(=O)(=O)c1ccc(-c2cccc(COC3CCN(C(=O)Cc4ccc(C#N)cc4)CC3)c2)cc1 [CBK149513] | 96.3 |
| Cc1cc(CNC(=O)C2(c3ccccc3)CCCC2)no1 [CBK149518] | 103 |
| Cc1cc(Cl)ccc1CNC(=O)C1(c2ccccc2)CCCC1 [CBK149519] | 88.6 |
| O=C(NCc1ccc2occc2c1)C1(c2ccccc2)CCCC1 [CBK149525] | 116 |
| O=C(NCc1c(F)cccc1F)C1(c2ccccc2)CCCC1 [CBK149527] | 91.7 |
| CN(C)CC(C)(C)CNC(=O)C1(c2ccccc2)CCCC1 [CBK149532] | 107 |
| O=C(NCc1cccs1)C1(c2ccccc2)CCCC1 [CBK149533] | 103 |
